Test results taken from US11013780B2, “Methods of treating female infertility” (Myovant Sciences GmbH, priority 2016, dated 2021).
Where a SMILES comes first, the peptide text is derived from it. [ ]: non-standard residue; d: D form. Arg(Me) = CNC(=N)NCCC[C@H](N)C(=O)O; Hyp = O=C(O)[C@@H]1C[C@@H](O)CN1; azaGly = NNC(=O)O

Experiments:
serum LH and FSH = experiment: Single dose pharmacodynamics (LH, FSH), European men; type: in vivo, human
Description: Another study was a single dose, phase 1 clinical study of API-MA in healthy men age 50 to 76 years. Subjects enrolled in the first […] cohorts received 0.001, 0.003, 0.01, 0.03, 0.1 or 0.3 mg of API-MA or placebo by single SC bolus. Subjects enrolled in the seventh, eighth, and ninth cohorts received 1, 3, or 6 mg of API-MA or placebo by single 2-hour SC infusion. The pharmacodynamics of each of the following hormones was assessed: LH and FSH. PRL, TSH, cortisol, sex hormone binding globulin (SHBG), and plasma ACTH (also known as corticotropin) concentrations were measured on the day prior to dosing and on day 4, the Final Visit. To measure serum concentrations of LH and FSH in the bolus cohorts, blood specimens were collected at the following nominal times: the day prior to dosing, predose, and 0.083, 0.25, 0.75, 1, 2, 3, 4, 6, 8, 12, 16, 24, 36, 48 and 72 hours postdose. In the infusion cohorts, blood specimens were collected at the following nominal times: the day prior to dosing, predose or start of the infusion, and 0.5, 1, 1.5, 2 (end of infusion), 2.25, 2.5, 3, 4, 6, 8, 10, 14, 18, 26, 50 and 74 hours after the start of infusion. Serum LH concentrations increased after a single SC bolus of API-MA, as well as after a single 2-hour SC infusion of API-MA. The concentrations peaked between 6 and 12 hours and returned to baseline by 72 hours. The magnitudes and durations of the LH concentration increases were similar across the dose range, 0.001 to 6 mg.

[1] = PK across species (rats, dogs, monkeys), SC bioavailability; type: in vivo; settings: rat, dog, monkey, plasma, read-out: Bioavailability after SC administration
Text: The PK of API-MA was studied in rats, dogs, and monkeys.

[2] = system: 127 enzyme and radio ligand binding assays; experiment: Series of 127 enzyme and radio ligand binding assays; settings: 10 μmol/L
rat KISS1R = target: T1, rat KISS1R (Rattus norvegicus, UniProt Q924U1); experiment: Intracellular Ca2+ mobilization (fluorometric imaging plate reader), rat KISS1R; type: cell-based
T1 construct: expressed in transfected cells; host or cells: Chinese hamster ovary dihydrofolate reductase negative cells
Description: (§1) The effects of API-MA on intracellular Ca^2+ mobilization in KISS1R-expressing recombinant cells were evaluated by performing the fluorometric imaging plate reader assay.

[3] = In vitro distribution into blood cells, humans; type: in vitro ADME
Description: (§2) The in vitro distribution ratios of [^14C]API-MA into the blood cells at the concentrations of 0.01, 0.1, 1, and 10 μg/mL API-FB (free form) were 7.8%, 8.0%, 7.1%, and 4.8% for rats, 2.4%, 2.0%, 1.6%, and 1.2% for dogs, and 2.0%, 0.0%, 0.0%, and 0.5% for humans, respectively. […] The in vitro plasma protein binding ratios of [^14C]API-FB in rats, dogs, monkeys, and humans were determined by the ultracentrifugation method. In addition, the protein binding to human serum albumin (HSA), α1-acid glycoprotein (AGP), and HSA/AGP was investigated. […] In rats and dogs, a slight decrease in the binding ratio at the concentration range between 0.1 and 1.0 μg/mL API-FB was observed. In monkeys and humans, the binding was independent of the drug concentrations from 0.01 to 10 μg/mL API-FB.

[4] = In vitro distribution into blood cells, rats; type: in vitro ADME
Description: as §2

monkey KISS1R = experiment: Intracellular Ca2+ mobilization (fluorometric imaging plate reader), monkey KISS1R; type: cell-based
Description: as §1

[5] = Tissue distribution and excretion of radioactivity in rats; type: in vivo
Description: The concentrations of the radioactivity in the tissues of male albino and pigmented rats were investigated after a single IV administration of [^14C]API-MA at 1.049 mg/kg (1 mg/kg API-FB). […] The radioactivity, measured in albino rats, was rapidly eliminated from all of the tissues after IV administration of API-MA.
The urinary, fecal, biliary, and expiratory excretion of the dosed radioactivity was investigated after a single SC or IV administration of [^14C]API-MA at 1.049 mg/kg (1 mg/kg API-FB) to male Sprague-Dawley rats in two studies.

in vitro = in vitro ADME, rats, dogs, monkeys, humans; settings: rat, dog, monkey, human, plasma
Description: as §2

[6] = rats, IV 1 mg/kg API-FB, 24 hours postdose, first study
[7] = rats, IV 1 mg/kg API-FB, 48 hours postdose, second study
[8] = rats, SC 1 mg/kg API-FB, 24 hours postdose, first study
[9] = rats, SC 1 mg/kg API-FB, 48 hours postdose, second study

T1 sequence (Q924U1 whole entry): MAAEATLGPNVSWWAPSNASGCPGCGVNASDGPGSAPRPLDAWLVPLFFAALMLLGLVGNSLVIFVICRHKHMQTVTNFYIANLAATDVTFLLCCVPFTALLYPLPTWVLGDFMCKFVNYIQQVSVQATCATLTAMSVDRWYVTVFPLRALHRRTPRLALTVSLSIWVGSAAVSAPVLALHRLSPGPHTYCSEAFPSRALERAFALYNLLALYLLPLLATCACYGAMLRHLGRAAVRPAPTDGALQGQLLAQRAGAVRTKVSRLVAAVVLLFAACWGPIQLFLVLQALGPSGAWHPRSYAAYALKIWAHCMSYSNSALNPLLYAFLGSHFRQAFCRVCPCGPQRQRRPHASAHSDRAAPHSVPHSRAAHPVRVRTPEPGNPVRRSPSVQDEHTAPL

## CC(=O)O.CNC(=N)NCCC[C@H](NC(=O)[C@H](CC(C)C)NC(=O)NNC(=O)[C@H](Cc1ccccc1)NC(=O)[C@@H](NC(=O)[C@H](CC(N)=O)NC(=O)[C@@H]1C[C@@H](O)CN1C(=O)[C@@H](Cc1ccc(O)cc1)NC(C)=O)[C@@H](C)O)C(=O)N[C@@H](Cc1c[nH]c2ccccc12)C(N)=O [API-MA, 2-(N-Acetyl-D-tyrosyl-trans-4-hydroxy-L-prolyl-Lasparaginyl-L-threonyl-L-phenylalanyl)-hydrazinocarbonyl-L-leucyl-Nω-methyl-L-arginyl-L-tryptophanamide monoacetate] (Ac-[dY][Hyp]NTF[azaGly]L[Arg(Me)]W-NH2)
Serum LH and FSH; any dose level
  Changes in serum SHBG, prolactin, TSH, corticotropin, cortisol: no relevant changes
Serum LH and FSH; single dose 0.001 to 6 mg
  Time of FSH return / decline towards baseline: ≤ 72 h
  Time of LH return to baseline: ≤ 72 h
[1]
  bioavailability: > 55%
[2]
  Inhibitory effect in enzyme and receptor binding assays: did not show any significant inhibitory effect
Rat KISS1R
  EC50: 0.632 nM
Rat KISS1R; rat KISS1R
  Ratio of EC50 of API-MA to kisspeptin (45-54): 2.0
[3]; 0.01 μg/mL API-FB
  Distribution ratio into blood cells: 2.0%
[3]; 0.1 μg/mL API-FB
  Distribution ratio into blood cells: 0.0%
[3]; 1 μg/mL API-FB
  Distribution ratio into blood cells: 0.0%
[3]; 10 μg/mL API-FB
  Distribution ratio into blood cells: 0.5%
[4]; 0.01 μg/mL API-FB
  Distribution ratio into blood cells: 7.8%
[4]; 0.1 μg/mL API-FB
  Distribution ratio into blood cells: 8.0%
[4]; 1 μg/mL API-FB
  Distribution ratio into blood cells: 7.1%
[4]; 10 μg/mL API-FB
  Distribution ratio into blood cells: 4.8%
Monkey KISS1R; CHO dhfr- cells expressing monkey KISS1R
  EC50: 0.074 nM
Monkey KISS1R; monkey KISS1R
  Ratio of EC50 of API-MA to kisspeptin (45-54): 0.94
[5]; male albino and pigmented rats, single IV 1 mg/kg API-FB
  Tissue distribution of radioactivity: distributed widely into the tissues
[5]; pigmented rats, single IV 1 mg/kg API-FB
  Affinity for melanin in vivo: little affinity for melanin in vivo
[5]; [6]
  Excretion of radioactivity in bile: 20.7%
  Excretion of radioactivity in feces: 0.3%
  Excretion of radioactivity in urine: 76.6%
[5]; [7]
  Excretion of radioactivity in feces: 28.2%
  Excretion of radioactivity in urine: 70.0%
[5]; [8]
  Excretion of radioactivity in bile: 15.5%
  Excretion of radioactivity in feces: 0.2%
  Excretion of radioactivity in urine: 84.7%
[5]; [9]
  Excretion of radioactivity in feces: 20.4%
  Excretion of radioactivity in urine: 78.1%
[5]; rats, SC or IV 1 mg/kg API-FB, second study
  Excretion via expiration: minimal

## CNC(=N)NCCC[C@H](NC(=O)[C@H](CC(C)C)NC(=O)NNC(=O)[C@H](Cc1ccccc1)NC(=O)[C@@H](NC(=O)[C@H](CC(N)=O)NC(=O)[C@@H]1C[C@@H](O)CN1C(=O)[C@@H](Cc1ccc(O)cc1)NC(C)=O)[C@@H](C)O)C(=O)N[C@@H](Cc1c[nH]c2ccccc12)C(N)=O [Compound 1, 2-(N-Acetyl-D-tyrosyl-trans-4-hydroxy-L-prolyl-L-asparaginyl-L-threonyl-L-phenylalanyl)-hydrazinocarbonyl-L-leucyl-Nω-methyl-L-arginyl-L-tryptophanamide] (Ac-[dY][Hyp]NTF[azaGly]L[Arg(Me)]W-NH2)
In vitro
  fraction unbound: 0.267 to 0.447
